Experimental data from a melting point compilation (Tetko et al.; mined from patent text by program, amines drawn as free bases though some values may be those of a salt).

| melting point [°C] | Compound |
| --- | --- |
| 136 to 137 | O=C(NCCO)c1cccc(-c2cccn3cc(Cc4cccc(C(F)(F)F)c4)nc23)c1 |
| 89.2 to 89.5 | CCN(CC)Cc1cccc(-c2cc(OCc3ccccc3)c3cc(OC)ccc3n2)c1 |
| 106 to 110 | CCOC(=O)Cn1c(C)cnc(NCC(F)(F)c2ccccc2)c1=O |
| 187 | COc1cccc(Nc2nc(N)nc3c2-c2ccccc2C3)c1 |
| 123 to 124 | COc1ccc(C(=O)NCCc2ccccc2)cc1OC |
| 112 to 114 | Oc1cc(Br)ccc1C12CC3CC(CC(C3)C1)C2 |
| 217 | NC(=O)c1nn(-c2c(Cl)cc(C(F)(F)F)cc2Cl)c(N)c1S(=O)(=O)C(F)(F)F |
| 179 to 180 | CS(=O)(=O)c1cccc(-c2ccccc2NC(=S)NC(=O)c2ccccc2)c1 |
| 76 to 78 | CCN1CCCC1CNC(=O)c1nc(NC)sc1-c1ccncc1 (stereo not given) |
| 85 to 87 | c1cn(CCCc2ccc(OCc3coc(-c4ccoc4)n3)cc2)cn1 |
| 240 to 241 | CCCCn1cc([N+](=O)[O-])c(=O)c2cnc(-c3ccncc3)nc21 |
| 94 to 96 | CCC(=NO)c1ccc(Oc2cc(F)cc([C@@]3(OC)CCO[C@@H]3C)c2)cc1 (racemic) |
| 118 | CN(C(=O)c1nn(-c2ccc(Cl)cc2Cl)c(-c2ccc(Cl)cc2)c1O)N1CCCCC1 |
| 146 | COCn1ccnc1C(O)(c1ccc(Cl)cc1Cl)c1ccc(Cl)cc1Cl |
| 211 to 214 | CCC(=O)N(c1ccc(C#N)cc1)c1c(NC(C)C(C)(C)C)c(=O)c1=O (stereo not given) |
| 143 to 144 | Cc1cc(-c2cc(C(=O)O)c(=O)n(CC=Cc3ccccc3)n2)ccc1F |
| 219 | CN(CCOc1ccc(C=C2SC(=O)NC2=O)cc1)c1nc2ccccc2s1 |
| 133 | O=Cc1ccc(Sc2nc3cc(F)c(F)cc3[nH]2)o1 |
| 129 to 131 | CC(O)(c1ccc(OCc2ccc3ccccc3n2)cc1)c1ccc(OCc2ccc3ccccc3n2)cc1 |
| 104 to 111 | CC1(C)CC(N2C(=O)C=CC2=O)CC(C)(C)N1 |
| 182 to 185 | CN1Cc2ccccc2C(c2ccccc2)N=C1Cc1ccc(NS(C)(=O)=O)cc1 (stereo not given) |
| 132 to 134 | O=[N+]([O-])c1ccc(C2=NNC(CO)Cc3cc4c(cc32)OCO4)cc1 (stereo not given) |
| 179 to 180 | N#Cc1cc(-c2nc3cncnc3s2)ccc1Oc1ccc(Cl)cc1 |
| 58 to 60 | CC(C)n1c(=O)nc(-c2cccnc2)c2cc3c(cc21)OCO3 |

| melting point [°C] | Compound |
| --- | --- |
| > 250 | O=C1N(Cc2ncccc2C(F)(F)F)c2cccnc2C12COc1cc3c(cc12)OCCO3 (stereo not given) |
| 56 to 58 | COC(=O)c1ccc(OCCCl)cc1 |
| 67 to 68 | CN=C=Nc1ccccc1N1CCOCC1 |
| 178 to 181 | Cn1c(C(=O)O)ccc1C(=O)c1ccccc1 |
| 161 to 162 | Cc1nc(-c2cc3cccc(N(C)S(=O)(=O)c4cccs4)c3[nH]2)cs1 |
| 131 to 132 | BrCc1cccc2cccc(CBr)c12 |
| 196 | CC(=O)Nc1ccc(C=CC(=O)O)c(NC(=O)NC(=O)c2cc(F)c(F)cc2Cl)c1 |
| 348 to 350 | N#Cc1cccc(-c2ccc(O)c(-c3nc4cc(C#N)ccc4[nH]3)c2)c1 |
| 113 | CCOc1cc(C=[N+]([O-])C2CCC2)ccc1OC |
| 220 to 222 | O=C(NC(=S)Nc1ccc2nsnc2c1Cl)c1ccccc1 |
| 219 | O=C(CCS)N[C@@H](Cc1c[nH]cn1)C(=O)O |
| 201 to 202 | O=CCCNc1[nH]c(-c2ccc(F)cc2)nc1-c1ccccc1 |
| 98 | O=[N+]([O-])c1ccc2c(c1)O[C@@H](CNCc1ccccc1)CO2 |
| 104 to 106 | CC(O)c1ccc(-c2ccc(C(=O)OCc3ccccc3)cc2)cc1 (single isomer, unassigned; (+)) |
| 155 to 156 | Cn1c2cc(C(F)(F)F)ccc2c2oc(C(=O)Cl)cc21 |
| 150 | CN(C)c1cc(CC(C#N)=CNc2ccccc2)cc(N(C)C)c1C(C)(C)C |
| 82 to 84 | COc1ccc2c(c1)CN(CCc1ccc(N)cc1)CC2 |
| 235 to 237 | Nc1c(-c2ccccc2O)c2ccccc2[nH]c1=O |
| 122 to 124 | N#CC(C#N)=C1N(CCCN2CCC(F)(F)C2)CCN1CCCN1CCC(F)(F)C1 |
| 115 to 130 | CC(C)(C)OC(=O)Nc1ccc(-c2ccccc2F)cc1NC(=O)CC(=O)c1csc(-n2ccnc2)n1 |
| 155 to 156 | COc1ccc(-c2nn(Cc3ccccc3)c(=O)c3ccccc23)c(O)c1OC |
| 77 to 79 | CC1CC=NN1C(=O)c1cnccn1 (stereo not given) |
| 142 to 143 | Cc1ccc(S(=O)(=O)N2CCCC(CC(C#N)(c3ccc(F)cc3)c3ccc(F)cc3)C2)cc1 (stereo not given) |
| 87 to 89 | CCCc1c(OCCCCc2ccc3cc(OCc4ccccc4)c(OCc4ccccc4)cc3c2)ccc(C(=O)OCc2ccccc2)c1O |

| melting point [°C] | Compound |
| --- | --- |
| 89 to 90 | CCc1c(CC(=O)O)ccc(OC)c1OC |
| 122 to 126 | CCCCc1nc2c(N)nc3ccccc3c2n1CCCCSc1ccc(F)cc1F |
| 142 to 143 | COc1ccc(C(=O)c2ccc(OCc3nc(-c4ccccc4)oc3C)cc2)c(OCCC(=O)O)c1 |
| 232 to 234 | Nc1ccc(S(=O)(=O)N2CCCC(c3ccc(Cl)c(Cl)c3)=N2)cc1 |
| 286 to 290 | O=c1[nH]c(=O)n2c(c1-c1ccccc1)SC=CC2 |
| 173 to 174 | CC(C)(C)c1cc(CCc2ccccc2NC(=O)NCCc2ccc(Cl)cc2)cc(C(C)(C)C)c1O |
| 200 | CCOC(=O)C1=C(c2cccs2)Nc2n[nH]cc2C1c1ccccc1Cl (stereo not given) |
| 192 | CC(=Cc1ccccc1)C(=O)c1ccc(O)c(CC(=O)O)c1 |
| 113 | CCOC(=O)C1CCCCN1C(=O)c1ccc(Cl)c(C2(C)C(=O)N(Cc3ccc(OC)cc3OC)c3ccc(Cl)cc32)c1 (stereo not given) |
| 137 | CCOC(=O)CNC(=O)[C@@H](C)NC(=O)CNC(=O)CSC(=O)c1ccccc1 |
| 183 to 185 | O=C(O)Cn1cc(Br)cnc1=O |
| 209 to 211 | O=C(NNS(=O)(=O)c1ccccc1)c1ccc2[nH]ccc2c1 |
| 211 to 212 | CS(=O)(=O)c1ccccc1S(=O)(=O)Nc1cccc2cc(C3=NCCS3)[nH]c12 |
| 79 to 80 | CCCc1oc(-c2ccccc2)nc1COc1ccc(CO)cc1 |
| 203 to 204 | CC(C)Cn1cnc2c(N)nc3ccc(-c4ccccc4)cc3c21 |
| 52 to 53 | CCOC(=O)c1ccc(OCC(C)O)cc1 (stereo not given) |
| 198 | CCCCCC(=O)OCC(CCn1cnc2c(=O)[nH]c(N)nc21)COC(=O)CCCCC |
| 49 to 50 | COC(=O)c1ccccc1Oc1ccccc1[N+](=O)[O-] |
| 160 | CCCc1ccccc1Sc1c(C)n(CC(=O)O)c2ccc(NS(C)(=O)=O)cc12 |
| 174 to 176 | CCC(C)(C)c1cc(-c2cccc(C=C3SC(N4CCOCC4)=NC3=O)c2)ccc1O |
| 272 to 274 | CN1C(=O)Cn2cnnc2-c2cc(Cl)ccc21 |
| 225 to 227 | CCCCc1oc2ccccc2c1C(=O)Nc1ccc(-c2ccc(OCC(=O)O)cc2)cc1 |
| 191 to 195 | CCN(CC)Cc1ccc(-c2ccc3c(Nc4cc(OC)c(Cl)cc4Cl)c(C#N)cnc3c2)cc1 |
| 56.9 to 57.5 | COn1ccn(C)c1=S |

| melting point [°C] | Compound |
| --- | --- |
| 279 to 280 | O=C(c1c[nH]c2ncc(Br)nc12)C12CC3CC(CC(C3)C1)C2 |
| 190 to 192 | CC(C)(COC(=O)COc1ccc(C(=O)CN2Cc3cc(C#N)ccc3C2=O)cc1)NS(=O)(=O)c1cccnc1 |
| 97 to 99 | COC(=O)[C@H](CCCCNC(=O)OCc1ccccc1)n1c2ccccc2c2ccccc21 |
| 94 to 95 | CC(S)C(=O)NCc1noc(C(C)c2ccc(-c3ccccc3)c(F)c2)n1 (stereo not given) |
| 126 to 128 | COc1ccc(C2=NN(C3CCNCC3)C(=O)C(C)(C)C2)cc1OC |
| 123 to 124 | c1csc(-c2coc(COc3ccc(CCCn4ccnc4)cc3)n2)c1 |
| 94 | COc1cc(OC)nc(NN)n1 |
| 134 to 135 | Cc1oc(-c2cccc(-c3nc(CCO)c(C)o3)c2)nc1CCO |
| 53 to 55 | CC(C)(CCCCC(=O)CCCCC1(C(=O)O)CCC1)C(=O)O |
| 263 to 264 | CCCNC1=NS(=O)(=O)c2sc(C)cc2N1 |
| 219 to 222 | Cc1coc(NC(=O)C2c3ccccc3Oc3ccccc32)n1 |
| 219 to 220 | CC1CCC(=NN)c2ncc(C(=O)NN)c(=O)n21 (stereo not given) |
| 88 to 90 | CCN1CCCN(c2c(C)cccc2Cl)C1=S |
| 128 to 130 | O=c1c(Br)c(OCc2ccccc2)ccn1CCc1cccs1 |
| 76.5 to 88.5 | Cc1cc(C2(C(F)(F)F)CC(c3ccc(S(C)=O)cc3)=NO2)ccc1NC(=O)OC(C)(C)C (stereo not given) |
| 105 to 108 | CSC1=Nc2ccccc2Cn2nnnc21 |
| 200 | CC(C)OCC(=O)CC1c2ccccc2C(=O)N1c1ccc2ccc(Cl)nc2n1 (stereo not given) |
| 157 to 159 | Cc1cc(S(=O)(=O)c2ccc(N)cc2)cc(N(C)C)n1 |
| 206 to 208 | CC(C)(c1ccccc1)N1CC(O)=C(c2ccccc2)C1=O |
| 142 to 143 | NC(=O)c1ccc(F)c(F)c1Cl |
| 241 to 242 | O=C(O)c1[nH]c2cc(Br)c(Cl)cc2c1-c1ccccc1 |

| Compound | melting point [°C] |
| --- | --- |
| N#Cc1cc(C(O)CNC2CCCC2)ccc1N (stereo not given) | 158 to 160 |
| Cc1cc(C2=NOC(c3cc(Cl)cc(Cl)c3)(C(F)(F)F)C2)ccc1C(=O)Nc1ncc(Cl)cn1 (stereo not given) | 137 to 141 |
| CN1CCN(C(=O)CN2C(=O)C(NC(=O)OCc3ccccc3)N=C(c3ccccc3)c3ccccc32)CC1 (stereo not given) | 200 to 202 |
| ClCc1cc(I)cc(I)c1I | 97 to 98 |
| O=C(CCl)c1ccc(Oc2ccc(C(=O)CCl)cc2)cc1 | 129 to 130 |
| O=[N+]([O-])C=C1CN=C(c2ccccc2F)c2cc(Cl)ccc2N1 | 170 to 172 |
| BrCc1cc(CBr)cc(CBr)c1 | 95.5 to 97.5 |
